In patent publication US6525001B1, “Substituted pyrimidine and pyridine herbicides” (Mid-American Commercialization Corporation, priority 1997, dated 2003):

Legend:
Experiment in all cases: Test B pre-/postemergence
Assay type in all cases: in vivo
Set-up in all cases: key: 0 is no effect; 10 is complete control
[1] = system: corn (Zea mays); conditions: for Corn plant response rating: Preemergence
How it was run: (§1)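 Response scores run from 0, meaning no effect, to 10, meaning complete control, assigned by eye relative to controls twelve to sixteen days after spraying. Treatment was both preemergence on planted seed and postemergence on plants at the 1- to 4-leaf stage.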

[2] = system: wheat (Triticum aestivum)
How it was run: as §1

[3] = system: blackgrass (Alopecurus myosuroides); conditions: for Blackgrass plant response rating: Preemergence
How it was run: as §1

[4] = system: soybean (Glycine max)
How it was run: as §1

[5] = system: velvetleaf (Abutilon theophrasti)
How it was run: as §1

[6] = system: wild oat (Avena fatua)
How it was run: as §1

[7] = system: crabgrass (Digitaria sanguinalis); conditions: for Crabgrass plant response rating: Preemergence
How it was run: as §1

[8] = system: pigweed (Amaranthus retroflexus)
How it was run: as §1

[9] = system: bedstraw (Galium aparine); conditions: for Bedstraw plant response rating: Preemergence
How it was run: as §1

[10] = system: cocklebur (Xanthium strumarium); conditions: for Cocklebur plant response rating: Preemergence
How it was run: as §1

[11] = system: rape (Brassica napus)
How it was run: as §1

[12] = system: broadleaf signalgrass (Brachiaria decumbens); conditions: for B. signalgrass plant response rating: Preemergence
How it was run: as §1

[13] = system: sugar beet (Beta vulgaris)
How it was run: as §1

[14] = system: momingglory (Ipomoea hederacea)
How it was run: as §1

[15] = Rate 250 g/ha, Postemergence (so in the source)
[16] = Rate 250 g/ha, Postemergence as printed in head r139 (second section for compounds 26-50)

## Cc1cnc(-n2ccc(C(F)(F)F)n2)nc1Cc1cccc(OC(F)(F)F)c1 [Compound 42]
[1]; Rate 62 g/ha, Postemergence
  Plant response rating, Corn: 3
[1]; Rate 62 g/ha
  Corn plant response rating: 0
[1]; Rate 125 g/ha, Postemergence
  Plant response rating, Corn: 3
[1]; Rate 125 g/ha
  Corn plant response rating: 1
[1]; Rate 250 g/ha, Postemergence
  Plant response rating, Corn: 8
[1]; [15]
  Plant response rating, Corn: 2
[2]; Rate 62 g/ha, Postemergence
  Wheat plant response rating: 2
[2]; Rate 62 g/ha, Preemergence
  Wheat plant response rating: 1
[2]; Rate 125 g/ha, Postemergence
  Wheat plant response rating: 3
[2]; Rate 125 g/ha, Preemergence
  Plant response rating, Wheat: 2
[2]; Rate 250 g/ha, Postemergence
  Plant response rating, Wheat: 4
[2]; [15]
  Plant response rating, Wheat: 4
[3]; Rate 62 g/ha, Postemergence
  Plant response rating, Blackgrass: 6
[3]; Rate 62 g/ha
  Blackgrass plant response rating: 6
[3]; Rate 125 g/ha, Postemergence
  Plant response rating, Blackgrass: 7
[3]; Rate 125 g/ha
  Blackgrass plant response rating: 10
[3]; Rate 250 g/ha, Postemergence
  Plant response rating, Blackgrass: 7
[3]; [15]
  Plant response rating, Blackgrass: 10
[4]; Rate 62 g/ha, Postemergence
  Plant response rating, Soybean: 9
[4]; Rate 62 g/ha, Preemergence
  Soybean plant response rating: 2
[4]; Rate 125 g/ha, Postemergence
  Soybean plant response rating: 9
[4]; Rate 125 g/ha, Preemergence
  Plant response rating, Soybean: 4
[4]; Rate 250 g/ha, Postemergence
  Plant response rating, Soybean: 9
[4]; [15]
  Plant response rating, Soybean: 4
[5]; Rate 62 g/ha, Postemergence
  Plant response rating, Velvetleaf: 8
[5]; Rate 62 g/ha, Preemergence
  Velvetleaf plant response rating: 10
[5]; Rate 125 g/ha, Postemergence
  Velvetleaf plant response rating: 9
[5]; Rate 125 g/ha, Preemergence
  Plant response rating, Velvetleaf: 7
[5]; Rate 250 g/ha, Postemergence
  Plant response rating, Velvetleaf: 9
[5]; [15]
  Plant response rating, Velvetleaf: 10
[6]; Rate 62 g/ha, Postemergence
  Wild oats plant response rating: 6
[6]; Rate 62 g/ha, Preemergence
  Wild oats plant response rating: 4
[6]; Rate 125 g/ha, Postemergence
  Wild oats plant response rating: 6
[6]; Rate 125 g/ha, Preemergence
  Plant response rating, Wild oats: 8
[6]; Rate 250 g/ha, Postemergence
  Plant response rating, Wild oats: 6
[6]; [15]
  Plant response rating, Wild oats: 9
[7]; Rate 62 g/ha, Postemergence
  Plant response rating, Crabgrass: 4
[7]; Rate 62 g/ha
  Crabgrass plant response rating: 9
[7]; Rate 125 g/ha, Postemergence
  Plant response rating, Crabgrass: 7
[7]; Rate 125 g/ha
  Crabgrass plant response rating: 10
[7]; Rate 250 g/ha, Postemergence
  Plant response rating, Crabgrass: 8
[7]; [15]
  Plant response rating, Crabgrass: 10
[8]; Rate 62 g/ha, Postemergence
  Plant response rating, Redroot pigweed: 9
[8]; Rate 62 g/ha, Preemergence
  Redroot pigweed plant response rating: 9
[8]; Rate 125 g/ha, Postemergence
  Redroot pigweed plant response rating: 9
[8]; Rate 125 g/ha, Preemergence
  Redroot pigweed plant response rating: 10
[8]; Rate 250 g/ha, Postemergence
  Plant response rating, Redroot pigweed: 9
[8]; [15]
  Plant response rating, Redroot pigweed: 10
[9]; Rate 62 g/ha, Postemergence
  Plant response rating, Bedstraw: 9
[9]; Rate 62 g/ha
  Bedstraw plant response rating: 7
[9]; Rate 125 g/ha, Postemergence
  Plant response rating, Bedstraw: 9
[9]; Rate 125 g/ha
  Bedstraw plant response rating: 8
[9]; [15]
  Plant response rating, Bedstraw: 8
[10]; Rate 62 g/ha, Postemergence
  Plant response rating, Cocklebur: 9
[10]; Rate 62 g/ha
  Cocklebur plant response rating: 1
[10]; Rate 125 g/ha, Postemergence
  Plant response rating, Cocklebur: 9
[10]; Rate 125 g/ha
  Cocklebur plant response rating: 3
[10]; Rate 250 g/ha, Postemergence
  Plant response rating, Cocklebur: 9
[10]; [15]
  Plant response rating, Cocklebur: 8
[11]; Rate 62 g/ha, Postemergence
  Plant response rating, Rape: 10
[11]; Rate 62 g/ha, Preemergence
  Rape plant response rating: 7
[11]; Rate 125 g/ha, Postemergence
  Rape plant response rating: 10
[11]; Rate 125 g/ha, Preemergence
  Rape plant response rating: 10
[11]; Rate 250 g/ha, Postemergence
  Plant response rating, Rape: 10
[11]; [15]
  Plant response rating, Rape: 10
[12]; Rate 62 g/ha, Postemergence
  Plant response rating, B. signalgrass: 6
[12]; Rate 62 g/ha
  B. signalgrass plant response rating: 9
[12]; Rate 125 g/ha, Postemergence
  Plant response rating, B. signalgrass: 7
[12]; Rate 125 g/ha
  B. signalgrass plant response rating: 9
[12]; Rate 250 g/ha, Postemergence
  Plant response rating, B. signalgrass: 7
[12]; [16]
  Plant response rating, B. signalgrass: 10
[13]; Rate 62 g/ha, Postemergence
  Plant response rating, Sugarbeets: 10
[13]; Rate 62 g/ha, Preemergence
  Sugarbeets plant response rating: 10
[13]; Rate 125 g/ha, Postemergence
  Sugarbeets plant response rating: 10
[13]; Rate 125 g/ha, Preemergence
  Plant response rating, Sugarbeets: 10
[13]; Rate 250 g/ha, Postemergence
  Plant response rating, Sugarbeets: 10
[13]; [15]
  Plant response rating, Sugarbeets: 10
[14]; Rate 62 g/ha, Postemergence
  Plant response rating, Morningglory: 8
[14]; Rate 62 g/ha, Preemergence
  Morningglory plant response rating: 9
[14]; Rate 125 g/ha, Postemergence
  Morningglory plant response rating: 9
[14]; Rate 125 g/ha, Preemergence
  Morningglory plant response rating: 10
[14]; Rate 250 g/ha, Postemergence
  Plant response rating, Morningglory: 9
[14]; [15]
  Plant response rating, Morningglory: 10

## Cc1cnc(-n2cnc(C(F)(F)F)n2)nc1Cc1cccc(C(F)(F)F)c1 [Compound 43]
[1]; Rate 62 g/ha, Postemergence
  Plant response rating, Corn: 3
[1]; Rate 62 g/ha
  Corn plant response rating: 1
[1]; Rate 125 g/ha, Postemergence
  Plant response rating, Corn: 4
[1]; Rate 125 g/ha
  Corn plant response rating: 1
[1]; Rate 250 g/ha, Postemergence
  Plant response rating, Corn: 5
[1]; [15]
  Plant response rating, Corn: 1
[2]; Rate 62 g/ha, Postemergence
  Wheat plant response rating: 3
[2]; Rate 62 g/ha, Preemergence
  Wheat plant response rating: 2
[2]; Rate 125 g/ha, Postemergence
  Wheat plant response rating: 4
[2]; Rate 125 g/ha, Preemergence
  Plant response rating, Wheat: 2
[2]; Rate 250 g/ha, Postemergence
  Plant response rating, Wheat: 5
[2]; [15]
  Plant response rating, Wheat: 2
[3]; Rate 62 g/ha, Postemergence
  Plant response rating, Blackgrass: 5
[3]; Rate 62 g/ha
  Blackgrass plant response rating: 2
[3]; Rate 125 g/ha, Postemergence
  Plant response rating, Blackgrass: 6
[3]; Rate 125 g/ha
  Blackgrass plant response rating: 5
[3]; Rate 250 g/ha, Postemergence
  Plant response rating, Blackgrass: 8
[3]; [15]
  Plant response rating, Blackgrass: 8
[4]; Rate 62 g/ha, Postemergence
  Plant response rating, Soybean: 8
[4]; Rate 62 g/ha, Preemergence
  Soybean plant response rating: 1
[4]; Rate 125 g/ha, Postemergence
  Soybean plant response rating: 9
[4]; Rate 125 g/ha, Preemergence
  Plant response rating, Soybean: 5
[4]; Rate 250 g/ha, Postemergence
  Plant response rating, Soybean: 9
[4]; [15]
  Plant response rating, Soybean: 7
[5]; Rate 62 g/ha, Postemergence
  Plant response rating, Velvetleaf: 8
[5]; Rate 62 g/ha, Preemergence
  Velvetleaf plant response rating: 10
[5]; Rate 125 g/ha, Postemergence
  Velvetleaf plant response rating: 9
[5]; Rate 125 g/ha, Preemergence
  Plant response rating, Velvetleaf: 10
[5]; Rate 250 g/ha, Postemergence
  Plant response rating, Velvetleaf: 9
[5]; [15]
  Plant response rating, Velvetleaf: 10
[6]; Rate 62 g/ha, Postemergence
  Wild oats plant response rating: 4
[6]; Rate 62 g/ha, Preemergence
  Wild oats plant response rating: 6
[6]; Rate 125 g/ha, Postemergence
  Wild oats plant response rating: 5
[6]; Rate 125 g/ha, Preemergence
  Plant response rating, Wild oats: 9
[6]; Rate 250 g/ha, Postemergence
  Plant response rating, Wild oats: 6
[6]; [15]
  Plant response rating, Wild oats: 9
[7]; Rate 62 g/ha, Postemergence
  Plant response rating, Crabgrass: 7
[7]; Rate 62 g/ha
  Crabgrass plant response rating: 8
[7]; Rate 125 g/ha, Postemergence
  Plant response rating, Crabgrass: 8
[7]; Rate 125 g/ha
  Crabgrass plant response rating: 10
[7]; Rate 250 g/ha, Postemergence
  Plant response rating, Crabgrass: 10
[7]; [15]
  Plant response rating, Crabgrass: 10
[8]; Rate 62 g/ha, Postemergence
  Plant response rating, Redroot pigweed: 10
[8]; Rate 62 g/ha, Preemergence
  Redroot pigweed plant response rating: 10
[8]; Rate 125 g/ha, Postemergence
  Redroot pigweed plant response rating: 10
[8]; Rate 125 g/ha, Preemergence
  Redroot pigweed plant response rating: 10
[8]; Rate 250 g/ha, Postemergence
  Plant response rating, Redroot pigweed: 10
[8]; [15]
  Plant response rating, Redroot pigweed: 10
[9]; Rate 62 g/ha, Postemergence
  Plant response rating, Bedstraw: 9
[9]; Rate 62 g/ha
  Bedstraw plant response rating: 8
[9]; Rate 125 g/ha, Postemergence
  Plant response rating, Bedstraw: 10
[9]; Rate 125 g/ha
  Bedstraw plant response rating: 9
[9]; Rate 250 g/ha, Postemergence
  Plant response rating, Bedstraw: 10
[9]; [15]
  Plant response rating, Bedstraw: 10
[10]; Rate 62 g/ha
  Cocklebur plant response rating: 1
[10]; Rate 125 g/ha, Postemergence
  Plant response rating, Cocklebur: 7
[10]; Rate 125 g/ha
  Cocklebur plant response rating: 2
[10]; Rate 250 g/ha, Postemergence
  Plant response rating, Cocklebur: 9
[10]; [15]
  Plant response rating, Cocklebur: 2
[11]; Rate 62 g/ha, Postemergence
  Plant response rating, Rape: 9
[11]; Rate 62 g/ha, Preemergence
  Rape plant response rating: 8
[11]; Rate 125 g/ha, Postemergence
  Rape plant response rating: 10
[11]; Rate 125 g/ha, Preemergence
  Rape plant response rating: 10
[11]; Rate 250 g/ha, Postemergence
  Plant response rating, Rape: 10
[11]; [15]
  Plant response rating, Rape: 10
[12]; Rate 62 g/ha, Postemergence
  Plant response rating, B. signalgrass: 4
[12]; Rate 62 g/ha
  B. signalgrass plant response rating: 5
[12]; Rate 125 g/ha, Postemergence
  Plant response rating, B. signalgrass: 4
[12]; Rate 125 g/ha
  B. signalgrass plant response rating: 9
[12]; Rate 250 g/ha, Postemergence
  Plant response rating, B. signalgrass: 6
[12]; [16]
  Plant response rating, B. signalgrass: 9
[13]; Rate 62 g/ha, Postemergence
  Plant response rating, Sugarbeets: 10
[13]; Rate 62 g/ha, Preemergence
  Sugarbeets plant response rating: 10
[13]; Rate 125 g/ha, Postemergence
  Sugarbeets plant response rating: 10
[13]; Rate 125 g/ha, Preemergence
  Plant response rating, Sugarbeets: 10
[13]; Rate 250 g/ha, Postemergence
  Plant response rating, Sugarbeets: 10
[13]; [15]
  Plant response rating, Sugarbeets: 10
[14]; Rate 62 g/ha, Postemergence
  Plant response rating, Morningglory: 9
[14]; Rate 62 g/ha, Preemergence
  Morningglory plant response rating: 9
[14]; Rate 125 g/ha, Postemergence
  Morningglory plant response rating: 9
[14]; Rate 125 g/ha, Preemergence
  Morningglory plant response rating: 10
[14]; Rate 250 g/ha, Postemergence
  Plant response rating, Morningglory: 10
[14]; [15]
  Plant response rating, Morningglory: 10
